Test results published in patent US20140308298A1, “Diagnostic and Treatment of an Androgen-Independent Prostate Cancer” (UNIVERSITE D'AIX MARSEILLE, priority 2011, published 2014).

Experiments:
[1] = system: LNCaP cells; assay: Matrigel invasion assay (modified Boyden chamber), LNCaP cells; assay type: cell-based, human
Experimental: (§1) FIG. 10: Effect of AM and αAM on LNCaP cells in vitro. A, total RNA (1 μg) DNA-free from LNCaP cell line was reverse transcribed into cDNA and subjected to real-time quantitative reverse transcription (RT)-PCR for the estimation of relative CLR, RAMP2 and RAMP3 mRNAs to 18S rRNA ratio. B, effects of AM and αAM on LNCaP cells growth in vitro. For proliferation assay, LNCaP cells were seeded and treated in the presence of 5% FBS as described for PC3 cells in FIG. 9. C, no effects of AM on LNCaP cells invasion in vitro. For invasion assays, LNCaP cells (5×10^4 cells) were seeded on a Matrigel layer in a boyden chamber assay and analyzed as described for PC3 cells in FIG. 9.
Cell migration and invasion assays: The migration and chemoinvasion were assessed using a modified Boyden chamber assay (7). Du145 (15×10^−3), LNCaP (50×10^−3), and PC3 (30×10^−3) cells were added to the upper compartment during 6 h. For LECs, (30×10^−3) cells were added during 48 h for invasion and 20 h for migration.

[2] = system: PC-3 cells; assay: Matrigel invasion assay (modified Boyden chamber), PC3 cells; assay type: cell-based, human; conditions: AM 10^-7 M, 6 h
Experimental: (§2) FIG. 9: Effect of AM on PC3 cells in vitro. A, expression of AMR mRNAs in PC3 cells. Total RNA (1 μg) DNA-free from PC3 cell line was reverse transcribed into cDNA and subjected to real-time quantitative reverse transcription (RT)-PCR for the estimation of relative CLR, RAMP2 and RAMP3 mRNAs to 18S rRNA ratio. B, effects of AM and αAM on the growth of PC3 cells in vitro. For proliferation assays, PC3 cells were seeded at the density of 2×10^4 per well in 24 multiwell plates in the presence of RPMI 1640 medium supplemented with 2% FBS. AM at 10^−7M or αAM (70 μg/ml) were added. As control, rabbit control IgG (70 μg/ml) of irrelevant specificity was used. For each treatment, six wells were prepared, exposed to trypsin and cells were counted in Coulter Counter. Each bar represents the mean±SEM of four independent experiments. […] PC3 cells (3×10^4 cells) were added into Biocoat Matrigel invasion upper chamber and 10^−7 M of AM were added into the lower chamber, and after 6 h, non-invaded cells in the upper membrane were removed and cells invading into the lower membrane were quantified by fluorescence by adding DAPI reagent 45 min before taking the reading. Data are expressed as the number of migrated cells in 10 high-power fields and are the means of results from three independent experiments each performed in triplicate. bFGF was used as positive control. […]

[3] = system: human LEC; assay: Proliferation, migration and invasion of human LECs in vitro; assay type: cell-based; conditions: AM 10^-7 M; proliferation 6 days, migration 20 h, invasion 48 h
Experimental: Neonatal Human Dermal Lymphatic Microvascular Endothelial Cells (HMVEC-dLyNeo) were purchased from Lonza (Lonza, Basel, Switzerland), and expanded in microvascular endothelial cell growth medium-2 (EGM-2MV, Lonza) with growth supplements (EGM-2MV, Lonza). A, total RNA (1 μg) DNA-free from LECs was reverse transcribed into cDNA and subjected to real-time quantitative reverse transcription (RT)-PCR for the estimation of relative AM, CLR, RAMP2 and RAMP3 mRNAs to 18S rRNA ratio. B, oppose effect of AM and αAM on the growth of LECs in vitro. For proliferation assay, LECs were seeded at the density of 3.5×10^4 per well in 6 multiwell plates in the presence of EBM-2 medium supplemented with 0.5% FBS. AM (10^−7 M) and αAM (70 μg/ml) were added for 6 days treatment. After treatment, cells were exposed to trypsin and were prepared for cell number counting in a coulter counter. […] Cells migrating through the filter were counted after 20 h (C) and those migrating in presence of Matrigel were counted after 48 h (D). Data are expressed as the number of migrated cells in 10-high-power fields, and the values represent the mean±SEM of three independent experiments each performed in triplicate (*p<0.05; **p<0.01; ***p<0.001).
Cell migration and invasion assays: The migration and chemoinvasion were assessed using a modified Boyden chamber assay (7). […]

[4] = system: lymphatic endothelial cells; assay: LEC death after serum deprivation; assay type: cell-based, human; conditions: AM 10^-7 M
Experimental: FIG. 12. AM is a growth factor survival for lymphatic endothelial cells. Time course of LEC death after DMEM serum deprivation in the absence and presence of AM (10^−7M). Exponentially growing cells were changed into serum-free medium, and all floating cells after 12, 24 and 48 h were counted with a coulter counter. Each point and bar represents mean±SEM (n=6); values were normalized to the total number of floating dead cells 48 h after serum deprivation in the absence of AM, which was set at 100%. **, p<0.01.

[5] = system: Du145 cells; assay: Matrigel invasion assay (modified Boyden chamber), Du145 cells; assay type: cell-based, human
Experimental: (§3) FIG. 2: Adrenomedullin stimulates Du145 cell proliferation and invasion in vitro. A, AM induced cAMP formation in cultured Du145 cells. Cells (3×10^4 cells/ml) were treated with AM (10^−9 M-10^−7 M) for different times. Each value is the mean±SEM of three independent experiments performed in quadruplate (*, p<0.05; **, p<0.01; ***, p<0.001). B, oppose effects of AM and αAM on the growth of Du145 cells in vitro. For proliferation assays, Du145 cells were seeded at the density of 1×10^4 per well in 6 multiwell plates in presence of RPMI 1640 medium supplemented with 5% FBS. AM at 10^−7 M and αAM (70 μg/ml) were added. As control, rabbit control IgG (70 μg/ml) of irrelevant specificity was used. For each treatment, three wells were prepared, exposed to trypsin and cells were counted in Coulter Counter. Each bar represents the mean±SEM of four independent experiments (**, p<0.01; ***, p<0.001). […] Du145 cells (1.5×10^4 cells) were added into Biocoat Matrigel invasion upper chamber and 10^−7 M of AM were added into the lower chamber, and after 6 h, noninvaded cells in the upper membrane were removed and cells invading into the lower membrane were quantified by fluorescence by adding DAPI reagent at least 45 min before taking the reading. […] Data are expressed as the number of migrated cells in 10 high-power fields and are the means of results from three independent experiments. […]

[6] = system: PC-3 cells; assay: Cell proliferation assay, PC3 cells; assay type: cell-based, human; conditions: AM 10^-7 M or αAM 70 μg/ml; 2% FBS
Experimental: as §2

[7] = system: Du145 cells; assay: Cyclic AMP assay in Du145 cells; assay type: cell-based, human
Experimental: FIG. 2: Adrenomedullin stimulates Du145 cell proliferation and invasion in vitro. A, AM induced cAMP formation in cultured Du145 cells. Cells (3×10^4 cells/ml) were treated with AM (10^−9 M-10^−7 M) for different times. Each value is the mean±SEM of three independent experiments performed in quadruplate (*, p<0.05; **, p<0.01; ***, p<0.001). B, oppose effects of AM and αAM on the growth of Du145 cells in vitro. For proliferation assays, Du145 cells were seeded at the density of 1×10^4 per well in 6 multiwell plates in presence of RPMI 1640 medium supplemented with 5% FBS. AM at 10^−7 M and αAM (70 μg/ml) were added. As control, rabbit control IgG (70 μg/ml) of irrelevant specificity was used. For each treatment, three wells were prepared, exposed to trypsin and cells were counted in Coulter Counter. Each bar represents the mean±SEM of four independent experiments (**, p<0.01; ***, p<0.001). C, AM stimulates Du145 cells invasion in vitro. Du145 cells (1.5×10^4 cells) were added into Biocoat Matrigel invasion upper chamber and 10^−7 M of AM were added into the lower chamber, and after 6 h, noninvaded cells in the upper membrane were removed and cells invading into the lower membrane were quantified by fluorescence by adding DAPI reagent at least 45 min before taking the reading. RPMI 1640 containing 2% FBS was used as control. bFGF was used as positive control. Data are expressed as the number of migrated cells in 10 high-power fields and are the means of results from three independent experiments. Each bar represents the mean±SEM (**, p<0.01; ***, p<0.001). D, intracellular signalling pathway induced by AM in Du145 cells. Western blot analysis of phosphorylated cRAF (pcRAF), pMEK1/2, pERK (44 and 42 kDa) and ERK in Du145 cells, stimulated with AM (5×10^−7 M) for 2, 5, 10, 20, and 30 min. AM (5×10^−7 M)-induced phosphorylation of ERK was inhibited by mitogen-activated protein kinase kinase inhibitor, U0126 (10 μM, 30 min). EGF was used as positive control known to stimulate phosphorylation of cRAF, MEK, and ERK. […]

[8] = system: LNCaP cells; assay: Cell proliferation assay, LNCaP cells; assay type: cell-based, human; conditions: AM 2×10^-7 M; 5% FBS
Experimental: as §1
Cell proliferation assay: The effects of AM, αAM and control IgG on cell proliferation was examined at the indicated time points as described (19).

[9] = system: Du145 cells; assay: Cell proliferation assay, Du145 cells; assay type: cell-based, human; conditions: AM 10^-7 M
Experimental: as §3

[10] = system: Du145 cells; assay: Western blot of phosphorylated cRaf, MEK1/2, ERK and Akt in Du145 cells; assay type: cell-based, human
Experimental: FIG. 2: Adrenomedullin stimulates Du145 cell proliferation and invasion in vitro. A, AM induced cAMP formation in cultured Du145 cells. Cells (3×10^4 cells/ml) were treated with AM (10^−9 M-10^−7 M) for different times. Each value is the mean±SEM of three independent experiments performed in quadruplate (*, p<0.05; **, p<0.01; ***, p<0.001). B, oppose effects of AM and αAM on the growth of Du145 cells in vitro. For proliferation assays, Du145 cells were seeded at the density of 1×10^4 per well in 6 multiwell plates in presence of RPMI 1640 medium supplemented with 5% FBS. AM at 10^−7 M and αAM (70 μg/ml) were added. As control, rabbit control IgG (70 μg/ml) of irrelevant specificity was used. For each treatment, three wells were prepared, exposed to trypsin and cells were counted in Coulter Counter. Each bar represents the mean±SEM of four independent experiments (**, p<0.01; ***, p<0.001). C, AM stimulates Du145 cells invasion in vitro. Du145 cells (1.5×10^4 cells) were added into Biocoat Matrigel invasion upper chamber and 10^−7 M of AM were added into the lower chamber, and after 6 h, noninvaded cells in the upper membrane were removed and cells invading into the lower membrane were quantified by fluorescence by adding DAPI reagent at least 45 min before taking the reading. RPMI 1640 containing 2% FBS was used as control. bFGF was used as positive control. Data are expressed as the number of migrated cells in 10 high-power fields and are the means of results from three independent experiments. Each bar represents the mean±SEM (**, p<0.01; ***, p<0.001). D, intracellular signalling pathway induced by AM in Du145 cells. Western blot analysis of phosphorylated cRAF (pcRAF), pMEK1/2, pERK (44 and 42 kDa) and ERK in Du145 cells, stimulated with AM (5×10^−7 M) for 2, 5, 10, 20, and 30 min. AM (5×10^−7 M)-induced phosphorylation of ERK was inhibited by mitogen-activated protein kinase kinase inhibitor, U0126 (10 μM, 30 min). EGF was used as positive control known to stimulate phosphorylation of cRAF, MEK, and ERK. To assess the amount of proteins loaded for each sample, immunoblot analysis was performed with anti-α-actin.
Western blotting analysis: Cell extracts were prepared and processed for CLR, RAMP2 and RAMP3 western blot analysis as described (29). Immunoblotting of phospho-c-Raf, phospho-MEK1/2, phospho-ERK1/2, and ERK1/2 was performed using MAPK-phospho-ERK1/2 pathway samples kit (Cell Signaling Technologie, Inc.).

adrenomedullin [AM]
effect on LNCaP cells invasion [1]: No effect | induction of invasion [2]: 144±7.6% | effect of AM on LECs [3]: induces proliferation, migration and invasion of LECs | apoptosis (floating cells) after serum deprivation ([4]; persisted during 48 h, LECs): prevented the apoptosis | apoptotic cell death of adherent culture ([4]; serum deprived LECs): markedly suppressed | increase of invasion compared with control ([5]; AM 10^-7 M in bottom wells, 6 h): 92±22% | proliferative response of PC-3 cells [6]: no proliferative responses | time at which cAMP increase reached a maximum ([7]; AM 10^-7 M): 5 min | increase in cAMP content ([7]; AM 10^-7 M, IBMX 10^-4 M): 2.8±0.14 fold | stimulation of cAMP formation with graded concentration ([7]; AM 10^-9-10^-7 M, 5 min): dose-dependent stimulation | growth rates of LNCaP cells versus control cells [8]: slight decrease in the growth rates | stimulation of proliferation compared with untreated cells ([9]; 6 days): 51±9.9% | stimulation of proliferation compared with untreated cells ([9]; 8 days): 96±14.6% | levels of p-MEK and p-ERK ([10]; AM 5×10^-7 M, as early as 2 and 5 min, sustained up to 30 min): significantly increased | cRaf phosphorylation ([10]; AM 5×10^-7 M, as early as 2 min, control levels up to 10 min): increased cRaf phosphorylation | level of p-Akt ([10]; AM stimulation): not markedly increased

bFGF: Growth factor used as positive control in invasion and migration assays
effect on invasion relative to AM ([5]; bFGF 10^-6 M, positive control): similar

N#CC(=C(/N)Sc1ccccc1N)/C(C#N)=C(\N)Sc1ccccc1N [U0126]
inhibition of p-ERK induced by AM ([10]; U0126 10 μM, 30 min, AM 5×10^-7 M): completely inhibited
